Structures are written as SMILES. Numbered stars: 1 amine (or outer) side, 2 acyl side, 3 side chain; on linkers, the order of the positions; unused ones are H or OH. Peptide text beside a SMILES is read from it. * marks the point of attachment. Suc = O=C(CCC(=O)[*:2])[*:1]; CO = O=C([*:1])[*:2]; Bz = O=C(c1ccccc1)*; NHPh = c1ccc(N*)cc1

For this test, the target named is T1, VLA4 (Homo sapiens, UniProt P05556+P13612).
T1 construct: endogenous in cells; host or cells: Ramos cells
T1 sequence (P13612 34-1032): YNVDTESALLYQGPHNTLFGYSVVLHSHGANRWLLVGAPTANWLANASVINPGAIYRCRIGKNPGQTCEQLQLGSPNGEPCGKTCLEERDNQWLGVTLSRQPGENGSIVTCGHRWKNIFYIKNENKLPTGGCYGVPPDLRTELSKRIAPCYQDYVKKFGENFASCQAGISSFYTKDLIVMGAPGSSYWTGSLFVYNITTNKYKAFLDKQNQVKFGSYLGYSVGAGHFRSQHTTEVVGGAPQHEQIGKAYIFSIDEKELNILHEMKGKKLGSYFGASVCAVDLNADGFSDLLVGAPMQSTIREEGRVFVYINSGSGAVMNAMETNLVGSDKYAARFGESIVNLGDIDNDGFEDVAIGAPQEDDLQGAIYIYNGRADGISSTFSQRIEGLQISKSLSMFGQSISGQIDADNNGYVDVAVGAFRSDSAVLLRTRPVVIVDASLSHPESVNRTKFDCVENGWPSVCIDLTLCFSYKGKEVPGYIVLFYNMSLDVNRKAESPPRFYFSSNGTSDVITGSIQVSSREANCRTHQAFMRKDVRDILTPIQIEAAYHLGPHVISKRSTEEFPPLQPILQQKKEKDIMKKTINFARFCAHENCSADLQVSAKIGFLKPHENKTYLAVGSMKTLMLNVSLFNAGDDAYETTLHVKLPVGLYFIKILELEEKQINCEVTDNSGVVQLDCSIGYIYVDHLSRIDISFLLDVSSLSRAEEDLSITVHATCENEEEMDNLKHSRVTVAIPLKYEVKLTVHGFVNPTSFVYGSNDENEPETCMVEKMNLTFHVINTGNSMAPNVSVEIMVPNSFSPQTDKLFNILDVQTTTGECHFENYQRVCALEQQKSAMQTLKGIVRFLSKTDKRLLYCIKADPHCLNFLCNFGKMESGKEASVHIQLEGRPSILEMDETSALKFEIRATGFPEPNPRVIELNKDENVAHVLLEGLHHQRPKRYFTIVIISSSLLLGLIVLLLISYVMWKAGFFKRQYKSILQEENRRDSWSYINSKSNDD
T1 sequence (P05556 21-798): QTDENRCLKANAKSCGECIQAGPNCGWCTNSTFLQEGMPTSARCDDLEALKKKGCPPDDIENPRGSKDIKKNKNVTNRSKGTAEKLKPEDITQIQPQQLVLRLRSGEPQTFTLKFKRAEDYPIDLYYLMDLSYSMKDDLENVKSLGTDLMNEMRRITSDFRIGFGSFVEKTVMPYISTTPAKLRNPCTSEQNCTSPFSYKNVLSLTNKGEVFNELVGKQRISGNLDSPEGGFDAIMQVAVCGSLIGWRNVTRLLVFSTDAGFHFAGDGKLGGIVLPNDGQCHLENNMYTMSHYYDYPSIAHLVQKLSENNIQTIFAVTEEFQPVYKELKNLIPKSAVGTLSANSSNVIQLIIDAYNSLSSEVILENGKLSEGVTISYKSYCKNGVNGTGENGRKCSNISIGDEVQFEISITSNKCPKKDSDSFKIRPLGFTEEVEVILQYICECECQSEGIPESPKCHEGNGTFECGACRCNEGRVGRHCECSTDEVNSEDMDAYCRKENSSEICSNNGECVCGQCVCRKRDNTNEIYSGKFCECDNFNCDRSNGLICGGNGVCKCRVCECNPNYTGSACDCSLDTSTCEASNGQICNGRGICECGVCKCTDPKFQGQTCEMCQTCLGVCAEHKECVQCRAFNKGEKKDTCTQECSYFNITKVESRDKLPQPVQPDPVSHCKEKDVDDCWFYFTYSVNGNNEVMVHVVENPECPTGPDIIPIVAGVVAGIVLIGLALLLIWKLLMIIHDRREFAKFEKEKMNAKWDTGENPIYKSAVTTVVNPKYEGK
The test can be described thus: Inhibition of VLA4-dependent adhesion of Ramos cells to BSA-CS1. In kind it is cell-based. The conditions noted are these: Ramos cells, BSA-CS1 coated wells, 2 mM MnCl2, 30 minutes at room temperature; read-out: IC50. In short, it runs like this:
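BCECF-AM-labelled Ramos cells in Tris buffer pH 7.4 with 2 mM MnCl2 were added with compound to wells coated with BSA-conjugated Cys-Tyr-CS1 peptide (1 μg/mL). Cells and compound were incubated for 30 min at room temperature, in triplicate. Inhibition was quantified from bound fluorescence against no-compound controls, with uncoated wells used for nonspecific binding.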
Take `CC(C)C[C@H](NC(=O)CCc1ccc(O)cc1)C(=O)N[C@@H](CC(=O)O)C(=O)N(CC(C)C)CC(C)C` [Compound 117]: the IC50 is above 10 µM.

On to `CC(C)C[C@H](NC(=O)Cc1ccc(NC(=O)Nc2ccccc2)cc1)C(=O)N[C@@H](CC(=O)O)C(=O)N[C@H](C(=O)NC(C)C)C(C)C` [Compound 319], for which the concentration for half-maximal inhibition (IC50) lay in the range of 0.05 to 10 µM.

Turning to `COC(=O)[C@@H](NC(=O)[C@H](CC(=O)O)NC(=O)[C@H](CC(C)C)NS(=O)(=O)c1ccc(OC)cc1)[C@@H](C)O` [Compound 177], the IC50 was above 10 µM.

Consider `COC(=O)[C@@H]1CCCN1C(=O)[C@@H](NC(=O)[C@H](CC(=O)O)NC(=O)[C@H](CC(C)C)NC(=O)OC(C)(C)C)C(C)C` [Compound 40], for which the half-maximal inhibitory concentration (IC50) was above 10 µM.

As to `COC(=O)[C@@H](NC(=O)[C@H](CC(=O)O)NC(=O)[C@H](CC(C)C)N(C)C(=O)CCc1ccccc1)C(C)C` [Compound 140] (HELM PEPTIDE1{[O=C(CCc1ccccc1)[*:2]].[meL].D.V.[CO[*:1]]}$$$$V2.0), the 50% inhibitory concentration (IC50) is above 10 µM.

For `CC(C)C[C@@H](C(=O)N[C@@H](CC(=O)O)C(=O)N[C@H](C(=O)O)C(C)C)N(C)C(=O)c1ccccc1` [Compound 113] (HELM PEPTIDE1{[O=C(c1ccccc1)[*:2]].[meL].D.V}$$$$V2.0), the half-inhibitory concentration (IC50) was above 10 µM.

Consider `Cc1ccccc1NC(=O)Nc1ccc(CC(=O)N[C@@H](CC(C)C)C(=O)N[C@@H](CCC(=O)O)C(=O)N[C@@H](CC(=O)O)C(N)=O)cc1` [Compound 310], for which the IC50 is below 0.05 µM.

As to `COC(=O)[C@@H](NC(=O)[C@H](CC(=O)O)NC(=O)[C@H](CC(C)C)N(CCc1ccccc1)C(C)=O)C(C)C` [Compound 29], the half-maximal inhibitory concentration (IC50) is above 10 µM.

Turning to `CC(C)C[C@H](NC(=O)C1CCc2ccccc2N1)C(=O)N[C@@H](CC(=O)O)C(=O)N[C@H](C(=O)Nc1ccc(F)cc1)C(C)C` (stereo partly drawn) [Compound 122], the 50% inhibitory concentration (IC50) is above 10 µM.

For the compound `CC(C)CNC(=O)[C@H](CC(=O)O)NC(=O)[C@H](CC(C)C)NC(=O)CCc1ccc(O)cc1` [Compound 100], the IC50 was above 10 µM.

For `CC(C)C[C@H](NC(=O)C1(NC(=O)OC(C)(C)C)CCc2ccccc2C1)C(=O)N[C@@H](CC(=O)O)C(=O)N[C@H](C(=O)O)C(C)C` (stereo partly drawn) [Compound 63] (HELM PEPTIDE1{[CC(C)(C)OC(=O)[*:2]].[O=C(C1(N[*:1])CCc2ccccc2C1)[*:2]].L.D.V}$$$$V2.0), the IC50 was above 10 µM.

`CNC(=O)[C@@H](NC(=O)[C@H](CC(=O)O)NC(=O)[C@H](CC(C)C)NC(=O)Nc1ccccc1)C(C)C` [Compound 187] ({NHPh-CO}-Leu-Asp-Val-NHMe): the IC50 was above 10 µM.

For `CC(C)C[C@H](NC(=O)[C@H](CC(=O)O)NC(=O)C1Cc2ccccc2CN1)C(=O)O` (stereo partly drawn) [Compound 88] (HELM PEPTIDE1{[O=C(C1Cc2ccccc2CN1)[*:2]].D.L}$$$$V2.0), the IC50 was above 10 µM.

Turning to `CC(C)C[C@H](NC(=O)CCC(=O)Nc1ccccc1)C(=O)N[C@@H](CC(=O)O)C(=O)N[C@H](C(=O)O)C(C)C` [Compound 107] ({NHPh-Suc}-Leu-Asp-Val-OH), the IC50 is above 10 µM.

In the case of `COC(=O)C[C@H](NC(=O)CNC(=O)c1ccccc1)C(=O)N[C@H](C(=O)OC)C(C)C` [Compound 173] (Bz-Gly-Asp(OMe)-Val-OMe), the 50% inhibitory concentration (IC50) was above 10 µM.

For `CC[C@H](C)[C@H](NC(=O)[C@H](CC(=O)O)NC(=O)[C@H](CCC(N)=O)NC(=O)Cc1ccc(NC(=O)Nc2ccccc2C)cc1)C(N)=O` [Compound 300], the IC50 was below 0.05 µM.

With `COC(=O)[C@H](CCSC)NC(=O)[C@@H](NC(=O)[C@H](CC(=O)O)NC(=O)[C@H](CC(C)C)NC(=O)OC(C)(C)C)C(C)C` [Compound 167] (HELM PEPTIDE1{[CC(C)(C)OC(=O)[*:2]].L.D.V.M.[CO[*:1]]}$$$$V2.0), the IC50 was above 10 µM.

For `CC(C)C[C@H](NC(=O)C1CCCO1)C(=O)N[C@@H](CC(=O)O)C(=O)N[C@H](C(=O)O)C(C)C` (stereo partly drawn) [Compound 80], the IC50 is above 10 µM.

The values are drawn from patent US6596687B1, “Cell adhesion inhibitors” (Biogen, Inc., priority 1995, dated 2003).
